# From patent US10111881B2 (priority 2016, dated 2018)
# Legend:
# MARV = test: microbe, parasite or virus in culture; type: cell-based, Marburgvirus (Musoke strain); details: for IC50: read-out: IC-50 (MARV)
# EBOV = test: organism not typed; type: cell-based, Zaire Ebolavirus (Mayinga strain); details: for IC50: read-out: IC-50 (EBOV)
SMILES,Curve class (MARV) (MARV),IC50 (MARV),Curve Class (EBOV) (EBOV),IC50 (EBOV)
COc1ccccc1CCN1CCCC(CN(C)CC(C)(C)CO)C1 (stereo not drawn) [MLS001162808],1.2,26.1 µM,1.3,7.25 µM
O=C(COC(=O)/C=C/c1cccs1)Nc1nc(-c2ccccc2)cs1 [MLS000391391],1.2,25.3 µM,1.4,–
C=C1C(=O)c2sccc2C(c2ccc(OC)c(OC)c2)C1COC(C)=O (stereo not drawn) [MLS002702500],1.3,2.06 µM,–,5.93 µM
O=C1C2CCCN2C(c2cccs2)N1c1ccc(Cl)cc1 (stereo not drawn) [MLS000092187],1.2,25.2 µM,1.4,–
C=C1CC(C)OC(c2ccccc2OCC(O)CN2CCCCC2)C1 (stereo not drawn) [MLS000042810],1.2,25.5 µM,1.7,–
CCN(CC)CCNC1=NCCn2c1cc1cc(OC)ccc12 [MLS000556387],1.2,25.5 µM,1.6,2.93 µM
COc1ccc2c(c1)c(CCN)c(C)n2Cc1ccccc1.Cl [MLS001030162],–,25.3 µM,1.3,6.41 µM
COc1ccc(C(C(=O)NC2CCCCC2)N(C(=O)CCl)c2ccc(C)cc2)cc1 (stereo not drawn) [MLS000583959],1.2,12.1 µM,1.3,12.4 µM
O=C(CCCN1CCc2[nH]c3ccc(F)cc3c2C1)c1ccc(F)cc1 [MLS001173370],–,25.1 µM,1.3,3.06 µM
O=C1COc2ccc(C(=O)CCl)cc2N1 [MLS000780111],–,~38.8 µM,4,–
COc1ccc(Nc2cc(C)nc3ccc(OC)cc23)cc1 [MLS001209453],1.2,12.5 µM,1.3,3.4 µM
CCN(CCNCC(O)COc1ccccc1C(C)C)c1cccc(C)c1.O=C(O)C(=O)O (stereo not drawn) [MLS001179997],–,25.5 µM,1.4,–
C=CCNCCOCCOc1ccc(Cl)cc1C(C)(C)C [MLS000666802],–,25.2 µM,1.5,0.616 µM
COc1ccc2c(c1)CC(N1CCN(C)CC1)c1cc(OC)ccc1S2.O=C(O)/C=C\C(=O)O (stereo not drawn) [MLS001179278],1.2,12.5 µM,1.6,6.49 µM
Cc1c(C(=O)NCCN(C)C)oc2ccc(S(=O)(=O)N3CCCC3)cc12 [MLS000936795],1.2,25.4 µM,1.4,–
CCCCN(CCCC)CCNC(=O)CSCc1ccc(C)cc1.O=C(O)C(=O)O [MLS000689481],1.2,12.8 µM,1.3,12 µM
Fc1ccc2c(c1)Sc1ccc(Cl)cc1CC2N1CCN(CCC2OCCO2)CC1 (stereo not drawn) [MLS001179272],1.3,25.4 µM,1.5,0.691 µM
CN(C)CCCNC(=S)N1CCN(c2nc(-c3ccccc3)cs2)CC1 [MLS001207131],1.2,25.3 µM,1.3,25.2 µM
Cc1cccc(C)c1OCC(O)CNC(C)c1ccccc1.Cl (stereo not drawn) [MLS001177927],1.2,25.8 µM,1.5,6.42 µM
COc1ccccc1C(=O)O/N=C(\N)c1ccccn1 [MLS001045935],1.2,27.9 µM,1.4,–
Fc1ccc(C(c2nnnn2Cc2cccs2)N2CCN(C3CCCCC3)CC2)cc1 (stereo not drawn) [MLS000880330],1.2,25.8 µM,1.6,6.38 µM
CCOC(=O)N1CCN(S(=O)(=O)c2ccc(C(=O)N(CCCN(C)C)c3nc4c(C)c(C)ccc4s3)cc2)CC1.Cl [MLS001239358],–,13 µM,1.6,0.609 µM
CCOc1cc(CNCCc2c[nH]c3ccccc23)cc(Cl)c1OC.Cl [MLS000718690],1.2,25.3 µM,–,2.77 µM
OC(CN1CCCCC1)Cn1c2ccc(Cl)cc2c2cc(Cl)ccc21 (stereo not drawn) [MLS001181479],1.2,25.6 µM,4,–
O=C(C#Cc1ccccc1)c1ccco1 [MLS001174896],–,12.2 µM,–,12.4 µM
Cc1cc(NC(=O)CCN2CCN(C/C=C/c3ccccc3)CC2)ccc1Br.Cl [MLS000999960],–,26.4 µM,1.6,3.28 µM

SMILES,Curve class (MARV) (MARV),IC50 (MARV),Curve Class (EBOV) (EBOV),IC50 (EBOV)
CCN1CCCC1CNCC(O)COc1ccc(C(C)(C)C)cc1C.O=C(O)C(=O)O (stereo not drawn) [MLS001018888],1.2,25.7 µM,1.3,12.2 µM
CCN1CCN(CCCNC(=O)c2cc3cc4ccc(OC)cc4nc3o2)CC1 [MLS000091920],1.2,5.4 µM,4,–
CC1(C)CC(NC(=O)N2c3ccccc3Sc3ccccc32)CC(C)(C)N1 [MLS000332573],1.2,12.8 µM,1.3,6.02 µM
Cc1cc(OCCCCCNCCO)cc(C)c1Cl [MLS000106706],1.2,25.2 µM,1.5,0.595 µM
Cc1cc(C(=O)c2ccccc2)c(NC(=O)CCl)s1 [MLS000567464],1.2,~44.4 µM,1.6,25.2 µM
Oc1ccc(N2CCN(Cc3ccc(OCCCN4CCCCC4)cc3)CC2)cc1 [MLS000736237],1.2,14 µM,4,–
CN(C)CCCN(C(=O)c1ccc2ccccc2c1)c1nc2cc3c(cc2s1)OCO3.Cl [MLS001239325],1.3,13.3 µM,1.7,1.55 µM
CCN(CC)CCCNc1nc(CN2CCOCC2)nc2sc3c(c12)CCC3 [MLS000772389],1.2,24.8 µM,1.6,3.51 µM
CCN(CC)CCNC(=O)c1ccc(NC(=O)c2ccccc2-c2ccc(C(F)(F)F)cc2)cc1 [MLS001175455],1.2,25.4 µM,1.6,6.42 µM
Cc1ccc(NC(=O)ON=C2CCCC2)cc1 [MLS000569139],1.2,12.7 µM,1.4,–
O=C(NC1CCCCC1)c1ccc(S(=O)(=O)N2CCCCC2)cc1 [MLS000063146],1.2,25.4 µM,4,–
Cc1ccc(C(=O)N/C(=C/c2ccc(-c3ccc([N+](=O)[O-])cc3)o2)C(=O)NCCCN(C)C)cc1 [MLS001180408],–,12.5 µM,4,–
Cc1ccccc1NC(=O)CSc1ccc(-c2ccccn2)nn1 [MLS001237534],–,24.8 µM,4,–
Cc1cc(Cl)cc(C)c1OCCn1ccnc1 [MLS001196083],–,2.06 µM,–,6.19 µM
COc1ccc(C(CNC(=O)c2oc3ccc(OC)cc3c2C)N2CCCC2)cc1 (stereo not drawn) [MLS001150589],1.2,25.9 µM,4,–
CCOC(=O)c1c(C)n(CC(O)CN(C)C)c2cc(Br)c(OC)cc12.Cl (stereo not drawn) [MLS000684231],1.2,4.88 µM,1.3,6.48 µM
CC(C)(C)c1cc(/C=N/O)cc(C(C)(C)C)c1O [MLS000391984],1.2,6.12 µM,1.4,–
CCCN1CCN(CCCNC(=O)c2cc3c(=O)[nH]c4ccc(C)cc4c3s2)CC1 [MLS000673118],1.2,25.1 µM,1.3,25 µM
COc1ccc(NC(=O)C2C3C=CC4(O3)C2C(=O)N(CCN2CCCCC2)C4C(=O)NC2CCCC(C)C2C)cc1 (stereo not drawn) [MLS000936259],1.2,25.3 µM,1.3,12.5 µM
Oc1ccc(Nc2ccnc3cc(Cl)ccc23)cc1 [MLS000737975],–,25.2 µM,4,–
CN(C)c1cc(NC(=O)CN2CCCC2)c2ccccc2n1.O=C(O)C(=O)O [MLS001047402],1.2,25.9 µM,1.2,5.26 µM
Cc1ccc(NC(=O)CN(C)C(=O)Cn2ncc(Cl)c(Cl)c2=O)cc1 [MLS000336293],–,24 µM,4,–
S=C(Nc1ccc(Cl)cc1)NC1CCN(Cc2ccccc2)CC1 [MLS000418057],1.2,25.6 µM,4,–
CCOc1cccc(CNCCO)c1OCc1ccc(Cl)cc1Cl.Cl [MLS000580080],1.2,25.1 µM,1.3,24.6 µM
Cc1cc(Nc2ccc(Cl)cc2)nc(N2CCOCC2)n1 [MLS001029946],1.2,~43.2 µM,1.6,1.52 µM
Cc1cc(C)c2nc(C)cc(Nc3ccc(C(=O)NCCO)cc3)c2c1 [MLS000768081],1.2,13.8 µM,4,–
